Each structure is given as a SMILES string.

Assay type in all cases: cell-based
In one test the target is hCav3.2 (Homo sapiens, UniProt O95180). As to the kind of experiment: whole-cell patch clamp, % inhibition of current. The settings on record: read-out: 20μM.
The next test concerns the target rCav2.2 (Rattus norvegicus, UniProt Q02294). As to the kind of experiment: whole-cell patch clamp, % inhibition of current at […]. Conditions: read-out: % inhibition at 20 μM. (In patch-clamp work, channel activity is measured electrically.)
The next test addresses hCav3.3 (Homo sapiens, UniProt Q9P0X4). As to the kind of experiment: whole-cell patch clamp, % inhibition of current. The settings on record: read-out: 20μM.

hCav3.2, sequence (O95180 whole entry): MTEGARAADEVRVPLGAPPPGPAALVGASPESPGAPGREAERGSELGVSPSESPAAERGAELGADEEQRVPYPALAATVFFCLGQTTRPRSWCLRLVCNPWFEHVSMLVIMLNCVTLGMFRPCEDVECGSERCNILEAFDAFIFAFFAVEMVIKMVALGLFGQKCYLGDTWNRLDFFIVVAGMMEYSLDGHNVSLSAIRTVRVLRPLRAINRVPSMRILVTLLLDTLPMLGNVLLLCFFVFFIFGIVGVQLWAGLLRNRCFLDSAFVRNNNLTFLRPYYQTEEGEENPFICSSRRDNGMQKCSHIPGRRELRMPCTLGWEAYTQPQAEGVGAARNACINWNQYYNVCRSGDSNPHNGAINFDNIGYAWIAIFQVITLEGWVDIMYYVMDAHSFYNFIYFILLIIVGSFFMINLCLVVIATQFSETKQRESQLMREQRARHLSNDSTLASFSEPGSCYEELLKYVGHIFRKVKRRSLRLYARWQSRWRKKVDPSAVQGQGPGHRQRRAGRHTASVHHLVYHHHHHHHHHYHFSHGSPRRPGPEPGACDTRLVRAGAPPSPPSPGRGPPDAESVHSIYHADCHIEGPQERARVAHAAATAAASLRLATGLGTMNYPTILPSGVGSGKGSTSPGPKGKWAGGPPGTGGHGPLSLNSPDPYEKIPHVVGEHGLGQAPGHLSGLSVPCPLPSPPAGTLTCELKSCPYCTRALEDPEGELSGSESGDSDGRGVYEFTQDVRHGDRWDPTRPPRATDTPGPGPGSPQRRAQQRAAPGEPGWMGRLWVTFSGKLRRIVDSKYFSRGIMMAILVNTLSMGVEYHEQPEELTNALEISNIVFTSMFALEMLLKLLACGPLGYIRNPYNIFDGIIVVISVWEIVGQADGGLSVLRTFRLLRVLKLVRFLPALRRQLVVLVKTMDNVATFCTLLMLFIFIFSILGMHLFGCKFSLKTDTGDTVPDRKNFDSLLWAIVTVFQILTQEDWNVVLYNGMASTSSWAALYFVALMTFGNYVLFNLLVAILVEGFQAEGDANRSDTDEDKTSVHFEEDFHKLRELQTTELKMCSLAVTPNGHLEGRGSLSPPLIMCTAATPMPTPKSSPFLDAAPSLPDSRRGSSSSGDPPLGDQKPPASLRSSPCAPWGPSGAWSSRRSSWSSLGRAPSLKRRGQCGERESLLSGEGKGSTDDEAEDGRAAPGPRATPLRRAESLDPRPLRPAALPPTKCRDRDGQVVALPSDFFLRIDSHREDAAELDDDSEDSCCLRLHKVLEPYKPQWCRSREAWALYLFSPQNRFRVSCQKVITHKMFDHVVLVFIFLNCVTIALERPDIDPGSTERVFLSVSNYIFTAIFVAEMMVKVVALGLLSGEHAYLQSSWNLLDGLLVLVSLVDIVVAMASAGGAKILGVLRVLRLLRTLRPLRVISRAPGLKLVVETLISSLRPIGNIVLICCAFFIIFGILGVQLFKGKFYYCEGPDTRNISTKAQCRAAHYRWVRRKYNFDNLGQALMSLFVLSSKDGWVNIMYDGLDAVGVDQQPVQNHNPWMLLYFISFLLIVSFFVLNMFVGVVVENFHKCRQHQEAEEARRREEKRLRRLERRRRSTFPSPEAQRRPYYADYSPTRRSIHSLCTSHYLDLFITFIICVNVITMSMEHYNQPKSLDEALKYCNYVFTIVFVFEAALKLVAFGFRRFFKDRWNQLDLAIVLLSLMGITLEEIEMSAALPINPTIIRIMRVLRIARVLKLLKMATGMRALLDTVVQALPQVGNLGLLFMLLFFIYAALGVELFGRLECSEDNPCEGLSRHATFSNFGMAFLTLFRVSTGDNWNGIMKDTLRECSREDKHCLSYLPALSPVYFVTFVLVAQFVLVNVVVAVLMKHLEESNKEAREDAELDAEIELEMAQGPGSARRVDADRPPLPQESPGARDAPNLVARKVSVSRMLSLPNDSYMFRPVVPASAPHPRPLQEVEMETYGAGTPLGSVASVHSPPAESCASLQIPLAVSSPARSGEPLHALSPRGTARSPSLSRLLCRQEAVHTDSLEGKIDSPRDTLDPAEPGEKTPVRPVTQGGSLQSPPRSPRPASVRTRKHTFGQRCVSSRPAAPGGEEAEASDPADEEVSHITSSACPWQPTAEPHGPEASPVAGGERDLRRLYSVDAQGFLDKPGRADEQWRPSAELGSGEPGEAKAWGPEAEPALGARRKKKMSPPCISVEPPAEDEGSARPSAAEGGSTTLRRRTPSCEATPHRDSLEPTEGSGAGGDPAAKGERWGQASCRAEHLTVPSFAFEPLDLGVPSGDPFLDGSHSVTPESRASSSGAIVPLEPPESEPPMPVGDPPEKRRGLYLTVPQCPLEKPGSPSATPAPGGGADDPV
rCav2.2, sequence (Q02294 whole entry): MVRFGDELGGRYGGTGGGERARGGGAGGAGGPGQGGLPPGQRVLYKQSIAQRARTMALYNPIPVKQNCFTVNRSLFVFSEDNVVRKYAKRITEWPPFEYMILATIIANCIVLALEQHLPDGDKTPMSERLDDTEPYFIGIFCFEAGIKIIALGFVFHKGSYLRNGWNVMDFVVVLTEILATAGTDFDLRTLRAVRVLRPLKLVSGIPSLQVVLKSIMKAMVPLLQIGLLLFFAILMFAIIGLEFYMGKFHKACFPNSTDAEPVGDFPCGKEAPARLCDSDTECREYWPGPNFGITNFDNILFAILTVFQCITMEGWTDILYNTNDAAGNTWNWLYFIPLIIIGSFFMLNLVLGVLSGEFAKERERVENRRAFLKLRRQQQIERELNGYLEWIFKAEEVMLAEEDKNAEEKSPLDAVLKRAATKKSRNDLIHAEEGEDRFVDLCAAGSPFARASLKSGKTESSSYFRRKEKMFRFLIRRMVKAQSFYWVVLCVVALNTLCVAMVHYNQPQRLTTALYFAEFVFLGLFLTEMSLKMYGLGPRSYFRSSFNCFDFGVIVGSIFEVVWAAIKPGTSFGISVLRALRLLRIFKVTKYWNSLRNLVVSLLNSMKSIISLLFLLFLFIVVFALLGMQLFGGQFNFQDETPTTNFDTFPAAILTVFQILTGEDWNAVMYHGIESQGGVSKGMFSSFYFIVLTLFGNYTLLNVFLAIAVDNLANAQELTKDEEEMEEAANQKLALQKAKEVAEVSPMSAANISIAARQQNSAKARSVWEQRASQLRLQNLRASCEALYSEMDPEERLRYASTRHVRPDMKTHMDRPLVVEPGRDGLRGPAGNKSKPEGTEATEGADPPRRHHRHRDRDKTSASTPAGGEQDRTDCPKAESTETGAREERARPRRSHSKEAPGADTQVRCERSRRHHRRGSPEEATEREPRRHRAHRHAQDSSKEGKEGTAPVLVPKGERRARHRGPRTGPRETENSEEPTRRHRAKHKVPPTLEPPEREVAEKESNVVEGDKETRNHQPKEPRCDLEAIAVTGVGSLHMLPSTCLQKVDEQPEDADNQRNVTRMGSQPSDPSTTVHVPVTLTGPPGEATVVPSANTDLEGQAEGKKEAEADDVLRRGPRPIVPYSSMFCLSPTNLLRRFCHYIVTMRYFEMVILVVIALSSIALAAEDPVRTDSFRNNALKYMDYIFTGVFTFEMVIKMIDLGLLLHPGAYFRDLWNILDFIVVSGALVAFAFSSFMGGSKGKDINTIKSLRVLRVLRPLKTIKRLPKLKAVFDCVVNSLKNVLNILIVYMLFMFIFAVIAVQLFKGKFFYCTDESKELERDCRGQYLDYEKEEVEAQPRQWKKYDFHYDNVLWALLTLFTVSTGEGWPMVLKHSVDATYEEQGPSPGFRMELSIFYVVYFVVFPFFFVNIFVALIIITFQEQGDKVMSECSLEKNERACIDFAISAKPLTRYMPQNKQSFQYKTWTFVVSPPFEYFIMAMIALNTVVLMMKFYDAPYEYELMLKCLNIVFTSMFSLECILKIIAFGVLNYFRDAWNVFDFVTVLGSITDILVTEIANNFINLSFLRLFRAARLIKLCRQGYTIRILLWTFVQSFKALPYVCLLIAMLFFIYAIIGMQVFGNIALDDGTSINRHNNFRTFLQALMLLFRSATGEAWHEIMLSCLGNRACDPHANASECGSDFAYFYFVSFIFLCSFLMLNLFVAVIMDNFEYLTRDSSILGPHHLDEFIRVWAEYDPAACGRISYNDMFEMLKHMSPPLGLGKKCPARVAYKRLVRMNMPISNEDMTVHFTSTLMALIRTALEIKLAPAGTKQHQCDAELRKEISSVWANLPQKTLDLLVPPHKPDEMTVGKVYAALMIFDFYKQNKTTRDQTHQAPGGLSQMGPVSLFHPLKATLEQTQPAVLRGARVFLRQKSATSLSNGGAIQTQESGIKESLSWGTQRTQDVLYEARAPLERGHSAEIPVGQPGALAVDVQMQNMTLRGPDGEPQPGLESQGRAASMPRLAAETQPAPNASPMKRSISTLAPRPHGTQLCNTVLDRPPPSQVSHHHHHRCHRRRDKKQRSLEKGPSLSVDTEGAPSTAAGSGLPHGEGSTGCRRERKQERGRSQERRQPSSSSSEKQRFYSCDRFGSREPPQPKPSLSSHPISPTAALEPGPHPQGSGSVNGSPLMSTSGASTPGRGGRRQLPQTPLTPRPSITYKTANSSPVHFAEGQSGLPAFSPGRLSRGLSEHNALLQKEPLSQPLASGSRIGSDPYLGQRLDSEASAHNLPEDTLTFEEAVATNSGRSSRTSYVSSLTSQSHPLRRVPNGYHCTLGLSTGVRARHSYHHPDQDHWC

Turning to `C=C(C)[C@@H]1CC[C@]2(C(=O)O)CC[C@]3(C)[C@H](CC[C@@H]4[C@@]5(C)CC[C@H](O)C(C)(C)[C@@H]5CC[C@]43C)[C@@H]12` [BA, betulinic acid], the inhibition at 20 µM on hCav3.2 was determined as 66.1 ± 4.6%; at rCav2.2 it was 69.8 ± 2.5%; on hCav3.3, 31.4 ± 1.8%.
